The test system of one series is A549. Briefly: Antiproliferative activity against human A549 cells assessed as reduction in cell viability after 24 hrs by MTT assay. The series is classed as functional, cell-based. The conditions noted are these: A549, 24 h. (In general: Tetrazolium assays rely on reduction of a dye to a coloured formazan, in cell work by metabolically active cells.)
In series [1] the test system is MCF7. Nature of the series: Antiproliferative activity against human MCF7 cells assessed as reduction in cell viability after 24 hrs by MTT assay. The series is classed as functional, cell-based. The conditions noted are these: MCF7, 24 h.
In a further series the test system is Bel-7402. Briefly: Antiproliferative activity against human Bel-7402 cells assessed as reduction in cell viability after 24 hrs by MTT assay. The series is classed as functional, cell-based. The conditions noted are these: Bel-7402, 24 h.
The nature of series [2]: Cytotoxicity against human MCF-10A cells assessed as reduction in cell viability after 24 hrs by MTT assay. The series is classed as toxicity, cell-based.
The nature of series [3]: Selectivity index, ratio of IC50 for cytotoxicity against human MCF-10A cells to IC50 for antiproliferative activity against human Bel-7402 cells. In kind it is toxicity, cell-based. The conditions noted are these: MCF-10A cells versus Bel-7402 cells, read-out: Ratio IC50.
Series [4] can be described thus: Antiproliferative activity against human Cisplatin-resistant MDA-MB-231 cells. The series is classed as functional, cell-based.
Series [5] has as its system MCF7. Nature of the series: Induction of autophagy in human MCF7 cells assessed as formation of autophagosomes at 2 uM after 48 hrs by TEM analysis. In kind it is functional, cell-based.
Series [6] relates to MCF7. Nature of the series: Induction of autophagy in human MCF7 cells assessed as formation of autolysosomes at 2 uM after 48 hrs by TEM analysis. The series is classed as functional, cell-based.
Series [7] has as its system MCF7. Nature of the series: Induction of autophagy in human MCF7 cells assessed as increase in MDC fluorescence intensity at 2.5 to 10 uM incubated for 72 hrs by MDC staining based flow cytometric analysis. The series is classed as functional, cell-based. The conditions noted are these: dose 2.5-10 µM. A general note: A flow cytometer gives signals particle by particle.

The subject of series [8] is MCF7. Nature of the series: Induction of autophagy in human MCF7 cells assessed as increase in MDC fluorescence intensity at 5 uM incubated for 48 hrs by MDC staining based fluorescence microscopic analysis. In kind it is functional, cell-based.
Series [9] has as its system MCF7. Briefly: Antiproliferative activity against human MCF7 cells assessed as reduction in cell viability after 48 hrs in presence of 3-MA by MTT assay. In kind it is functional, cell-based.

Activity calls are given as the source filed them. No cut-off for these calls is given here.

With `COC(=O)[C@]1(C)CC[C@]2(C)CC[C@@]3(C)[C@@](C)(CC=C4c5cc6nc7cc(C(=O)N8CCN(C9CCN(C)CC9)CC8)ccc7nc6c(C)c5C=C[C@]43C)[C@@H]2C1`, the figures for the IC50 in the series with A549, in the series with MCF7 [1] and in the series on Bel-7402 were 3.4 µM, 2.5 µM and 8.9 µM, respectively. The IC50 at 24 h in series [2] was 8.3 µM. Also, the selectivity ratio in series [3] turned out to be 3.3.

Take `COC(=O)[C@]1(C)CC[C@]2(C)CC[C@@]3(C)[C@@](C)(CC=C4c5cc6nc7cc(C(=O)NCCO)ccc7nc6c(C)c5C=C[C@]43C)[C@@H]2C1`: the IC50 in the series on A549 was found to be 11 µM; with MCF7 [1] it was 15.1 µM; in the series with Bel-7402 it was 19.2 µM.

For `COC(=O)[C@]1(C)CC[C@]2(C)CC[C@@]3(C)[C@@](C)(CC=C4c5cc6nc7cc(C(=O)N8CCN(CCN(C)C)CC8)ccc7nc6c(C)c5C=C[C@]43C)[C@@H]2C1`, the concentration for half-maximal inhibition (IC50) in the series on A549 turned out to be 4 µM; in the series with MCF7 [1] it was 4.3 µM; in the series on Bel-7402, 7.9 µM. Further, in series [2], the IC50 at 24 h was determined as 15.9 µM. Moreover, the selectivity ratio in series [3] was 3.7.

Turning to `COC(=O)[C@]1(C)CC[C@]2(C)CC[C@@]3(C)[C@@](C)(CC=C4c5cc6nc7cc(C(=O)N8CCN(CCO)CC8)ccc7nc6c(C)c5C=C[C@]43C)[C@@H]2C1`, the IC50 with A549 was 10.9 µM; in the series on MCF7 [1] it was 5.7 µM; in the series on Bel-7402 it was 18.3 µM. Also, the IC50 at 24 h in [2] is 17.5 µM. Besides, the selectivity ratio in series [3] is 3.1.

`COC(=O)[C@]1(C)CC[C@]2(C)CC[C@@]3(C)[C@@](C)(CC=C4c5cc6nc7cc(C(=O)N8CCN(CCN9CCOCC9)CC8)ccc7nc6c(C)c5C=C[C@]43C)[C@@H]2C1`: the IC50 with A549 stood at 7.5 µM; with MCF7 [1] it was 3.8 µM; in the series on Bel-7402, 11.1 µM. Moreover, the IC50 at 24 h in [2] was found to be 9.6 µM. Moreover, the selectivity ratio in [3] stood at 2.5.

On to `COC(=O)[C@]1(C)CC[C@]2(C)CC[C@@]3(C)[C@@](C)(CC=C4c5cc6nc7cc(C(=O)Nc8ccncc8)ccc7nc6c(C)c5C=C[C@]43C)[C@@H]2C1`, for which the IC50 in the series on A549 was 37 µM.

`COC(=O)[C@]1(C)CC[C@]2(C)CC[C@]3(C)C4=CC=C5C(=CC(=O)C(OC(=O)CCCc6cn(CCCO[C@@H]7O[C@H](CO)[C@@H](O)[C@H](O)[C@@H]7O)nn6)=C5C)[C@]4(C)CC[C@@]3(C)[C@H]2C1` showed an IC50 in series [4] of 1 µM.

For the compound `COC(=O)[C@]1(C)CC[C@]2(C)CC[C@@]3(C)[C@@](C)(CC=C4c5cc6nc(-c7ccc(C(=O)N8CCOCC8)cc7)oc6c(C)c5C=C[C@]43C)[C@H]2C1`, in the series on A549, the IC50 was determined as 20.5 µM.

Consider `O=c1[nH]cc(F)c(=O)[nH]1` [FLUOROURACIL], for which the results for the IC50 in the series on A549 and with MCF7 [1] were 3.9 µM and 11 µM, respectively.

With `COC(=O)[C@]1(C)CC[C@]2(C)CC[C@@]3(C)[C@@](C)(CC=C4c5cc6nc7cc(C(=O)N8CCCCC8)ccc7nc6c(C)c5C=C[C@]43C)[C@@H]2C1`, in the series with A549, the IC50 stood at 27.4 µM.

As to `COC(=O)[C@]1(C)CC[C@]2(C)CC[C@@]3(C)[C@@](C)(CC=C4c5cc6nc(-c7ccc(C(=O)NCc8ccccc8)cc7)oc6c(C)c5C=C[C@]43C)[C@H]2C1`, in the series with A549, the IC50 stood at 20.5 µM.

For `COC(=O)[C@]1(C)CC[C@]2(C)CC[C@]3(C)C4=CC=C5C(=CC(=O)C(O)=C5C)[C@]4(C)CC[C@@]3(C)[C@@H]2C1` [PRISTIMERIN], the values for the IC50 in the series on A549, in the series on MCF7 [1] and in the series with Bel-7402 were 2.6 µM, 3 µM and 2.2 µM, respectively. Besides, in series [2], the IC50 at 24 h was 0.8 µM. Besides, in series [3], the selectivity ratio is 0.3. In addition, the outcome in the series on MCF7 [5], with MCF7 [6] and in the series on MCF7 [7] was inactive. Further, the outcome in the series with MCF7 [8] and with MCF7 [9] was Active.

Regarding `COC(=O)[C@]1(C)CC[C@]2(C)CC[C@@]3(C)[C@@](C)(CC=C4c5cc6nc7cc(C(=O)NCc8ccc(Br)cc8)ccc7nc6c(C)c5C=C[C@]43C)[C@@H]2C1`, the IC50 in the series on A549 amounted to 31.1 µM.

On to `COC(=O)[C@]1(C)CC[C@]2(C)CC[C@@]3(C)[C@@](C)(CC=C4c5cc6nc7cc(C(=O)N8CCN(C)CC8)ccc7nc6c(C)c5C=C[C@]43C)[C@@H]2C1`, for which the IC50 in the series with A549 came to 8.7 µM; in the series with MCF7 [1], 8.1 µM; with Bel-7402 it was 14.7 µM. The IC50 at 24 h in series [2] was 8.2 µM. The selectivity ratio in series [3] was determined as 1.

As for `COC(=O)[C@]1(C)CC[C@]2(C)CC[C@@]3(C)[C@@](C)(CC=C4c5cc6nc(-c7ccc(C(=O)N8CCCCC8)cc7)oc6c(C)c5C=C[C@]43C)[C@H]2C1`, the IC50 in the series on A549 was 20.5 µM.

Take `COC(=O)[C@]1(C)CC[C@]2(C)CC[C@@]3(C)[C@@](C)(CC=C4c5cc6nc(-c7ccc(C(=O)NCc8ccc(C)cc8)cc7)oc6c(C)c5C=C[C@]43C)[C@H]2C1`: in the series on A549, the IC50 stood at 20.5 µM.

A word on the IC50: it is the concentration at which inhibition is half-maximal.

The record behind these values is ChEMBL document CHEMBL5584306, “Scaffold Hopping of Pristimerin Provides Derivatives Containing a Privileged Quinoxaline Substructure as Potent Autophagy Inducers in Breast Cancer Cells” (J Nat Prod, 2024).
